According to paper PMC10877631, “Retinylidene chromophore hydrolysis from mammalian visual and non-visual opsins” (The Journal of Biological Chemistry, 2024):

Legend:
hRed-cone opsin = target: T1, hRed-cone opsin (Homo sapiens, UniProt P04000); test: UV-Vis pigment spectrum; NaBH4 trapping and LC-MS/MS of retinyl peptide and retinyl-Lys; format: binding; details: covalent Schiff base to helix VII Lys; dark state; LMNG
T1 construct: gene OPN1LW; recombinant, purified in LMNG; details only in supplement
T1 sequence (P04000 1-364): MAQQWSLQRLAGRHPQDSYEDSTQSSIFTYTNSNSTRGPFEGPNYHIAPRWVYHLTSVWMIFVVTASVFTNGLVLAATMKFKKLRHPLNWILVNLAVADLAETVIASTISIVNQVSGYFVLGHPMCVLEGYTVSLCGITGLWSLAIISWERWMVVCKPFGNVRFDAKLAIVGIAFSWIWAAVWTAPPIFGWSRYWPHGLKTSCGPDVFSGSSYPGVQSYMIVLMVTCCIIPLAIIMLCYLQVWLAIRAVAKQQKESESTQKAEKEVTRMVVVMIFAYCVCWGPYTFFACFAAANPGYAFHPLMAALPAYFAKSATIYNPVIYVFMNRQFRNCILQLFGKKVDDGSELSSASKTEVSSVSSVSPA

bRho = target: T2, bRho (Bos taurus, UniProt P02699); test: as above; format: binding; details: covalent Schiff base to helix VII Lys; dark state; LMNG
T2 construct: gene RHO; native, from bovine rod outer segments, purified in LMNG
T2 sequence (P02699 whole entry): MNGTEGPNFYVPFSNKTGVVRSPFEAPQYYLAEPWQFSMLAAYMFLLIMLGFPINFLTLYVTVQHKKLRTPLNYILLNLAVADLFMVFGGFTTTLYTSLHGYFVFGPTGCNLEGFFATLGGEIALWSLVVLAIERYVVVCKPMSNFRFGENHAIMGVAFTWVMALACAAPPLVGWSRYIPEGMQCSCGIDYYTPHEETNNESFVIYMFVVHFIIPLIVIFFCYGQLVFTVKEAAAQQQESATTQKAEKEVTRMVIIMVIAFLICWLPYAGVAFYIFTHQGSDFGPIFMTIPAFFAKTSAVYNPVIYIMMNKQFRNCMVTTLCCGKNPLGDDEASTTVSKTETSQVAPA

hBlue-cone opsin = target: T3, hBlue-cone opsin (Homo sapiens, UniProt P03999); test: as above; format: binding; details: covalent Schiff base to helix VII Lys; dark state; LMNG
T3 construct: gene OPN1SW; recombinant, purified in LMNG; details only in supplement
T3 sequence (P03999 1-345): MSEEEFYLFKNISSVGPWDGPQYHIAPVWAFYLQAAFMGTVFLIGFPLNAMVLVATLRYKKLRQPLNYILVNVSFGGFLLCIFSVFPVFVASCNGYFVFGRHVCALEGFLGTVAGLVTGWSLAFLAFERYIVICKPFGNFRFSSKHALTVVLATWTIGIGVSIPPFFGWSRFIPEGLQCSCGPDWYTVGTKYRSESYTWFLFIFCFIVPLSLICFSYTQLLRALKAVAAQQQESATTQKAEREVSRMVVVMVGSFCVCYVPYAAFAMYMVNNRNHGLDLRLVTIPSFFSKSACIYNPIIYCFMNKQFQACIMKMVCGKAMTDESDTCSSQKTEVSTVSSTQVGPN

[1] = target: T4, native bRGR in bRPE microsomal membranes (Bos taurus, UniProt P47803); test: NaBH4 trapping, HPLC and LC-MS/MS after illumination; format: biochemical; details: photoisomerization at 530 nm, then Schiff-base hydrolysis; pH 7.4, 140 mM NaCl; native microsomes
T4 construct: gene RGR; native, untagged, in bovine RPE microsomal membranes; chromophore site given as Lys256
T4 sequence (P47803 1-291): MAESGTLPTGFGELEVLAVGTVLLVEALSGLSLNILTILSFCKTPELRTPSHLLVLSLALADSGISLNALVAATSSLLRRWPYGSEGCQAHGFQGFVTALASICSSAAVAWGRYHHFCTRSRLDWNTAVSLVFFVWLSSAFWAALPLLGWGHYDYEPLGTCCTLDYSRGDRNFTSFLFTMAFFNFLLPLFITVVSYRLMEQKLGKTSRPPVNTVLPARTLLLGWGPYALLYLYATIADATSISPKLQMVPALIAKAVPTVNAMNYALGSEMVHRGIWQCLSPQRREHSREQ

[2] = target: T4, native bRGR in bRPE microsomal membranes; test: NaBH4 trapping, proteinase K or pronase digestion, LC-MS/MS; format: binding; details: covalent Schiff base at Lys256; native bovine RPE microsomes; before illumination
[3] = target: T5, bRGR (recombinant, 1D4-tagged) (Bos taurus, UniProt P47803); test: UV-Vis pigment spectrum; NaBH4 trapping and LC-MS/MS of retinyl peptide; format: binding; details: covalent Schiff base at Lys256; LMNG micelles; before illumination
T5 construct: gene RGR; chromophore site given as Lys256
T5 sequence (P47803 1-291): T4 sequence (P47803 1-291)

Compound	UV-Vis pigment spectrum; NaBH4 trapping and LC-MS/MS of retinyl peptide and reti (hRed-cone opsin)	UV-Vis pigment spectrum; NaBH4 trapping and LC-MS/MS of retinyl peptide and reti (bRho)	UV-Vis pigment spectrum; NaBH4 trapping and LC-MS/MS of retinyl peptide and reti (hBlue-cone opsin)	NaBH4 trapping, HPLC and LC-MS/MS after illumination [1]	NaBH4 trapping, proteinase K or pronase digestion, LC-MS/MS [2]	UV-Vis pigment spectrum; NaBH4 trapping and LC-MS/MS of retinyl peptide [3]
CC1=C(/C=C/C(C)=C/C=C\C(C)=C\C=O)C(C)(C)CCC1 [11-cis-retinal]	the resultant N^ε-retinyl-Lys was predominantly in the 11-cis configuration	the resultant N^ε-retinyl-Lys was predominantly in the 11-cis configuration	the resultant N^ε-retinyl-Lys was predominantly in the 11-cis configuration	rapid hydrolytic production of 11-cis-retinal by bRGR in native membranes was recapitulated in this study		
CC1=C(/C=C/C(C)=C/C=C/C(C)=C/C=O)C(C)(C)CCC1 [all-trans-retinal]					Microsomal bRGR reconstituted with slight excess of all-trans-retinal was analyzed by LC-MS/MS	recombinantly produced bRGR adducted with all-trans-retinal was immunopurified in lauryl maltose neopentyl glycol (LMNG) micelles
